The values below come from US6989380B2, “Treatment of pain” (The WKK Trust, priority 1996, dated 2006).

For the experiment, the system named is intractable trigeminal neuralgia. In words: Case history: intractable trigeminal neuralgia. It counts as in vivo, human. Conditions: person; treatments tried before the combination; relief attributed to placebo effects. As for the experimental part: A person suffered from intractable trigeminal neuralgia of many years standing. […] They then were treated with lofepramine, 70 mg bd, together with L-phenylalanine, 500 mg bd.
As for `NC(=O)N1c2ccccc2C=Cc2ccccc21` [carbamazepine], the “pain relief with earlier treatments” value is “None had provided more than transient relief for a few days”.

Take `CN1C(=O)CN=C(c2ccccc2)c2cc(Cl)ccc21` [diazepam]: the “pain relief with earlier treatments” value was “None had provided more than transient relief for a few days”.

For `O=C1NC(=O)C(c2ccccc2)(c2ccccc2)N1` [phenytoin], the “pain relief with earlier treatments” value is given as “None had provided more than transient relief for a few days”.

Turning to `CNCCC(Oc1ccc(C(F)(F)F)cc1)c1ccccc1` (centres unmarked) [fluoxetine], the “pain relief with earlier treatments” value is “None had provided more than transient relief for a few days”.

With `CN1CC[C@]23c4c5ccc(O)c4O[C@H]2[C@@H](O)C=C[C@H]3[C@H]1C5` [morpine], the “pain relief with earlier treatments” value is recorded as “None had provided more than transient relief for a few days”.
